Patent US12440576B2, “Antibody drug conjugates comprising sting agonists” (Mersana Therapeutics, Inc., priority 2020, dated 2025)
Like-named read-outs stand apart in the source and are kept apart here.

Legend:
[1] = system: CXCL10 induction; assay: CXCL10 induction in SKBR3 cancer cell/PBMC and monocyte co-cultures (Example 33); type: cell-based; settings: Homo sapiens
[2] = system: Type III Interferons IFNλ1/IFNλ3 (IL29/IL28b); assay: IFNλ1/IFNλ3 (IL29/IL28b) production, STING wild type SKBR3/PBMC co-cultures (Example 42); type: cell-based, human
Procedure: (§1) Type III IFN induction: Co-cultures of SKBR3 cells and PBMCs were setup as described above to analyze the induction of Type III Interferons in supernatants 24 hours post treatment using a human IL29/IL28b ELISA kit.

[3] = system: CXCL10 produced by the SKOV3 cancer cell monocultures; assay: CXCL10 ELISA of SKOV3 monocultures with conditioned media from immune cells (Example 36); type: cell-based, human; settings: 24 hours
Procedure: Conditioned media was prepared by culturing 1.5×10^6/mL PBMCs (two different donors), 1×10^6/mL primary monocytes (isolated from PBMCs from two different donors, as described in Example 29), or 1×10^6/mL THP1 cells in RPMI-1640 medium with 10% FBS and 1% penicillin/streptomycin for 24 hours at 37° C., 5% O2, in an incubator. The supernatants were collected and spun down at 2000 rpm for 10 min to remove any cells. SKOV3 cells were seeded in 96 well plates (30,000/well) and allowed to attach overnight in RPMI-1640 medium with 10% FBS and 1% penicillin/streptomycin. […] After incubation for 24 hours at 37° C., 5% O2 supernatants from the 96 well plates were analyzed for CXCL10 production using a human CXCL10 ELISA kit.

[4] = system: OVCAR3-NucRed cancer cells; assay: OVCAR3-NucRed co-cultures with PBMCs, enriched monocytes or CD16-depleted monocytes (Example 31); type: cell-based, human; settings: 20 and 4 nM payload
Text: Frozen human PBMCs (1×10^8) were thawed and aliquoted into three tubes: one aliquot was subjected to human monocyte enrichment [StemCell Technologies] (“CD16 depleted monocytes”), one aliquot was subjected to human monocyte enrichment without CD16 depletion [StemCell Technologies] (“enriched monocytes”), and one aliquot was not subjected to enrichment (“PBMCs”). For flow cytometry, cells (50,000) from each group were transferred to a U-bottom 96-well plate in 4-replicates, washed with PBS and stained with live/dead fixable Aqua dead cell staining dye (Molecular Probes) followed by staining with fluorophore conjugated target specific (triplicates) or isotype control antibodies (Pacific Blue anti-human CD14, FITC anti-human CD3, APC/Cy7 CD16, PE anti-human CD32, PE/Cy7 anti-human CD64). Cells were fixed and surface expression of the proteins of interest was determined by flow cytometry analysis on a MACSQuant flow cytometer. Data analysis was performed by FlowJo software. Table 3 provides the frequency (% of single/live cells)) of CD14−/CD16+, CD14+/CD16+, CD14−/CD32+, CD14+/CD32+, CD14−/CD64+, CD14+/CD64+, and CD14−/CD3+ cells in PBMCs, enriched monocytes, and CD16-depleted monocyte populations
OVCAR3-NucRed cells (generated as described in Example 28) were seeded (15,000/well) in 96-well CellBind surface tissue culture plates (Corning) and allowed to attach for 6 hours in RPMI-1640 medium with 10% FBS and 1% penicillin/streptomycin. Culture medium was replaced with fresh media (50 μL). […] PBMCs, enriched monocytes, and CD16-depleted monocytes were prepared as described in Example 29. Live PBMCs (30,000/well), enriched monocytes (20,000/well), and CD16-depleted monocytes (20,000/well) were then added to the wells in culture medium (50 μL) and the plate was placed in an IncuCyte© live cell imaging instrument in an incubator (37° C., 5% 02) and scanned every 4 hours over 2 days. The number of red objects (cancer cells) were quantified using the IncuCyte© Zoom software. Red object confluency in each well was normalized to its own T=0 time point red object confluency.

[5] = system: Type III Interferons IFNλ1/IFNλ3 (IL29/IL28b); assay: IFNλ1/IFNλ3 (IL29/IL28b) production, STING knock out SKBR3/PBMC co-cultures (Example 42); type: cell-based, human
Procedure: as §1

[6] = system: THP1-Dual cells cultured on Her2 recombinant protein coated plates; assay: THP1 luciferase reporter cells on Her2 protein coated plates (Example 27B); type: cell-based; settings: Homo sapiens
Procedure: The wells were then washed 1× with PBS-T and blocked by incubation with BSA (3% in PBS-T) for 1 hour at room temperature. […] THP1-dual reporter cells (50,000) were added into each well and incubated for 20 hours at 37° C. in a humidified atmosphere of 5% CO2. Cell culture supernatants (20 μl) from each incubated sample was added to resuspended QUANTI-Luc (50 μl) and the luminescent signal was measured immediately using a SpectraMax M5 plate reader (Molecular Devices). The EC50 value was determined from the dose response curve.

[7] = system: THP1-Dual cells cultured on NaPi2b recombinant peptide coated plates; assay: THP1 luciferase reporter cells on NaPi2b peptide coated plates (Example 27A); type: cell-based; settings: Homo sapiens, 20 h
Procedure: Human NaPi2b-derived peptide ([sequence]) was coated onto the surface of each well of a 96-well plate by incubation with the peptide (1p g/mL in PBS), overnight at 4° C. The wells were then washed 1× with PBS-T and blocked by incubation with BSA (3% in PBS-T) for 1 hour at room temperature. […] THP1-dual reporter cells (50,000) were added into each well and incubated for 20 hours at 37° C. in a humidified atmosphere of 5% CO2. Cell culture supernatants (20 μl) from each incubated sample was added to resuspended QUANTI-Luc (50 μl) and the luminescent signal was measured immediately using a SpectraMax M5 plate reader (Molecular Devices). The EC50 value was determined from the dose response curve.

[8] = system: STING wild type (sgNT-2) SKBR3 cells; assay: PBMC killing assay, STING wild type SKBR3 NucRed cells (Examples 30, 30A); type: cell-based, human; settings: 100, 25, 5 and 1 nM payload
[9] = system: STING pathway in THP1-Dual cells co-cultured with OVCAR3 cancer cells; assay: Cancer cell/THP1-IRF3-Luciferase reporter cell co-culture assay, OVCAR3 (Example 26A); type: cell-based; settings: Homo sapiens, OVCAR-3, 20 h
Procedure: Induction of STING pathway in immune cells: The induction of STING pathway in immune cells by NaPi2b-targeted STING ADC was evaluated by a cancer cell/THP1-IRF3-Luciferase reporter cell co-culture assay. OVCAR3 human ovarian carcinoma cells were seeded in 96-well CellBind surface tissue culture plates (15,000/well) and allowed to attach for 6 hours in RPMI-1640 medium with 10% FBS and 1% penicillin/streptomycin. […] THP1-dual reporter cells (30,000) were then added to each well and the incubation continued for 20 hours at 37° C. in a humidified atmosphere of 5% CO2. Cell culture supernatants (20 μl) from each incubated sample was added to resuspended QUANTI-Luc (50 l) and the luminescent signal was measured immediately using a SpectraMax M5 plate reader (Molecular Devices). The EC50 value was determined from the dose response curve.

[10] = system: IL29/IL28b induction (IFNλ1/λ3); assay: Type III IFN induction, human IL29/IL28b ELISA, SKBR3/PBMC co-cultures (Example 33); type: cell-based; settings: SK-BR-3, SKBR3/PBMC co-culture, supernatants 24 hours post treatment
Procedure: as §1

[11] = system: SKBR3 NucRed cells; assay: Cancer cell killing activity in SKBR3 NucRed/PBMC or primary human monocyte co-cultures (Example 33); type: cell-based
Procedure: 20,000 cells (per well) SKBR3 NucRed cells were seeded in 96-well tissue culture plates and allowed to attach 6 hours in 50 μL of RPMI-1640 medium with 10% FBS and 1% penicillin/streptomycin.

[12] = system: STING pathway in THP1-Dual cells co-cultured with SKBR3 cancer cells; assay: Cancer cell/THP1-IRF3-Luciferase reporter cell co-culture assay, SKBR3 (Example 26B); type: cell-based; settings: Homo sapiens, SK-BR-3
[13] = system: STING pathway in THP1-Dual cells co-cultured with SKOV3 cancer cells; assay: Cancer cell/THP1-IRF3-Luciferase reporter cell co-culture assay, SKOV3 (Example 34); type: cell-based; settings: Homo sapiens, SK-OV-3, 20 h
Procedure: The induction of STING pathway in immune cells by Her2-targeted STING ADC was evaluated by a cancer cell/THP1-IRF3-Luciferase reporter cell co-culture assay. SKOV3 human ovarian adenocarcinoma cells were seeded in 96-well CellBind surface tissue culture plates (20,000/well) and allowed to attach for 6 hours in McCoy's 5a medium with 10% FBS and 1% penicillin/streptomycin. […] 50,000 THP1-dual reporter cells were then added to each well and the incubation continued for 20 hours at 37° C. in a humidified atmosphere of 5% CO2. Cell culture supernatants (20 μL) from each incubated sample was added to resuspended QUANTI-Luc (50 μL) and the luminescent signal for IRF3 was measured immediately using a SpectraMax M5 plate reader (Molecular Devices). The EC50 value was determined from the dose response curve.

[14] = system: CXCL10 induction; assay: CXCL10 induction in Calu3 cancer cell/PBMC co-cultures (Example 35); type: cell-based; settings: Homo sapiens, Calu-3, read-out: EC50 - PBMC (CXCL10 induction)
Procedure: CXCL10 induction: Calu3 human lung adenocarcinoma cells were seeded in 96-well tissue culture plates and allowed to attach overnight at 37° C., 5% CO2 in 100 μL of EMEM medium with 10% FBS and 1% penicillin/streptomycin. Culture medium was replaced with fresh media (100 μL).

[15] = system: SKOV3 human ovarian cancer cells; assay: SKOV3 xenograft, Fc mutant HER2 ADCs (Example 54); type: in vivo, mouse; settings: iv day 1, n=10: Conjugate 8j 2.71/0.10, diABZI IV STING agonist 0/5 mg/kg
Procedure: Tumors were measured twice weekly using digital calipers and tumor volumes were calculated using the formula: tumor volume (mm^3)=(width^2×length)/2. Body weights were recorded daily for the first week and twice weekly thereafter. Animals remained on study until individual tumor volume reached ≥1000 mm^3≥1500 mm^3 or as indicated. Percent change in body weight was calculated using the formula: body weight change (%)=((weight^study day X−weight^study day 1)/weight^study day 1)*100. Tumor volumes are reported as mean±standard error of the mean (SEM). Tumor growth inhibition (% TGI) was defined as the percent difference in mean tumor volumes (MTVs) between treated and control groups. Tumor size was measured throughout each efficacy study to determine tumor growth inhibition (TGI). Percent tumor regression was calculated using the formula: % regression=(1−(mean tumor volume^final)/(mean tumor volume^day 1))*100. A partial response (PR) is defined as a tumor volume of 50% or less for day 1 volume for three consecutive measurements and equal to or greater than 13.5 mm^3 for at least one of these three measurements. A complete response (CR) is defined as a tumor volume less than 13.5 mm^3 for three consecutive measurements. A tumor-free survivor (TFS) is classified as having a CR at the end of study. […]

[16] = system: OVCAR3-NucRed cells; assay: OVCAR3-NucRed/PBMC co-culture killing assay (Example 28B); type: cell-based, human
Procedure: OVCAR3 human ovarian carcinoma cells stably expressing nuclear restricted mKate fluorescent red protein were generated by transduction with IncuCyte© NucLight Red Lentivirus reagent. Stably transduced cells (designated as OVCAR3-NucRed cells) selected in puromycin-containing media (2 μg/mL) for two days, were seeded in 96-well tissue culture plates (8,000/well) and allowed to attach overnight in RPMI-1640 medium with 10% FBS and 1% penicillin/streptomycin. Culture medium was replaced with fresh media (50 μL). […] Frozen human peripheral blood mononuclear cells (PBMCs) were thawed according to the supplier's instructions and were added to each well (40,000 PBMCs in 50 μL media) and the plate was placed in an IncuCyte© live cell imaging instrument in an incubator (37° C., 5% 02) and scanned every 4 hours over 2 days. The number of red objects (cancer cells) were quantified using the IncuCyte© Zoom software. Red object confluency in each well was normalized to its own T=0 time point red object confluency.
OVCAR3-NucRed cells were seeded in 96-well tissue culture plates (20,000/well) and allowed to attach 6 hours in RPMI-1640 medium with 10% FBS and 1% penicillin/streptomycin. Culture medium was replaced with fresh media (50 μL). […] The number of red objects (cancer cells) were quantified using the IncuCyte© Zoom software. […]

CCn1nc(C)cc1C(=O)Nc1nc2cc(C(N)=O)cc(OC)c2n1C/C=C/Cn1c(NC(=O)c2cc(C)nn2CC)nc2cc(C(N)=O)cc(OCCCO)c21 [Compound 1]
EC50 ([1]; Monocyte, read-out: EC50 - Monocyte (CXCL10 induction)): 31.1 nM | EC50 ([1]; SK-BR-3, read-out: EC50 - PBMC (CXCL10 induction)): 26.1 nM | EC50 ([2]; Homo sapiens, SK-BR-3, read-out: EC50 (IL29/IL28b production)): 49.3 nM | Bmax (IL29/IL28b production) ([2]; STING wild type SKBR3/PBMC): 0.5 OD450 | O.D. 450 + 100 nM Compound 1 (CXCL10) ([3]; Conditioned Media: Monocyte (Donor1)): 1.62 +/− 0.050 O.D. 450 | O.D. 450 + 100 nM Compound 1 (CXCL10) ([3]; Conditioned Media: Monocyte (Donor2)): 0.97 +/− 0.142 O.D. 450 | O.D. 450 + 100 nM Compound 1 (CXCL10) ([3]; Conditioned Media: None): 0.16 +/− 0.038 O.D. 450 | O.D. 450 + 100 nM Compound 1 (CXCL10) ([3]; Conditioned Media: PBMC (Donor1)): 2.22 +/− 0.084 O.D. 450 | O.D. 450 + 100 nM Compound 1 (CXCL10) ([3]; Conditioned Media: PBMC (Donor2)): 0.83 +/− 0.086 O.D. 450 | O.D. 450 + 100 nM Compound 1 (CXCL10) ([3]; Conditioned Media: THP1): 0.18 +/− 0.043 O.D. 450 | killing of OVCAR3-NucRed cancer cells by CD16 depleted monocytes (FIG. 5C) [4]: induced cancer cell killing | killing of OVCAR3-NucRed cancer cells by PBMCs (FIG. 5A) [4]: only in enriched monocyte and CD16-depleted monocyte co-cultures | killing of OVCAR3-NucRed cancer cells by enriched monocytes (FIG. 5B) [4]: induced cancer cell killing | Bmax (IL29/IL28b production) ([5]; STING knock out (sgRNA#3) SKBR3/PBMC): 0 OD450 | Bmax (IL29/IL28b production) ([5]; STING knock out (sgRNA#4) SKBR3/PBMC): 0 OD450 | EC50 [6]: 8.8 nM | EC50 [7]: 5.18 nM | killing of SKBR3 cells/PBMC co-cultures (FIG. 3A) [8]: showed activity in STING wild type (sgNT-2) SKBR3 cells/PBMC co-cultures at 100 nM only | EC50 [9]: 6.8 nM | EC50 [10]: 28.3 nM | IC50 ([11]; SK-BR-3, read-out: IC50 - Monocyte (killing activity)): 8.32 nM | IC50 ([11]; SK-BR-3, read-out: IC50 - PBMC (killing activity)): 9.51 nM | EC50 [12]: 7.4 nM

CCc1nc(C)oc1C(=O)Nc1nc2cc(C(N)=O)cnc2n1C/C=C/Cn1c(NC(=O)c2oc(C)nc2CC)nc2cc(C(N)=O)cc(OCCCO)c21 [Compound 30]
EC50 [13]: 38.5 nM | EC50 [14]: 160 nM

diABZI IV STING agonist
PR (partial responses) [15]: 7

B1: Conjugate 81: "XMT-1535 was used instead of XMT-1519 and 2-(2-(2-(2-aminoethoxy)ethoxy)ethoxy)acetic acid was incorporated" instead of (3-(2-(2-aminoethoxy)ethoxy)propanoyl)-L-alanine (conjugate, chains of the INN, looked up)
VH: QVQLVQSGAEVVKPGASVKMSCKASGYTFTGYNIHWVKQAPGQGLEWIGAIYPGNGDTSYKQKFRGRATLTADTSTSTVYMELSSLRSEDSAVYYCARGETARATFAYWGQGTLVTVSS
VL: DIQMTQSPSSLSASVGDRVTITCSASQDIGNFLNWYQQKPGKTVKVLIYYTSSLYSGVPSRFSGSGSGTDYTLTISSLQPEDFATYYCQQYSKLPLTFGQGTKLELK
modifications: drug-linker conjugate with PEG linker
lower payload concentration compared to Compound 1 for induction of cancer cell killing [16]: 100 × | cancer cell killing by PBMCs (red object numbers, FIG. 1B) ([16]; 1-100 nM payload): robust induction of cancer cell killing
